Our source for the melting point values is a melting point compilation (Tetko et al.; mined from patent text by program, amines drawn as free bases though some values may be those of a salt).

By melting point is commonly meant the temperature, or range, at which the solid turns liquid. On to `NCC1Cc2c(ccc3c2CCCC3)O1` (configuration not stated), for which the melting point is more than 225 °C.
In the case of `CC(C)c1cccc(C(C)C)c1NC(=O)Cc1ccccc1NCCc1ccccc1` it was 120 to 123 °C.
`CCc1cc2c(s1)-n1c(nnc1CNC(=O)Nc1cccc(C)c1)CN=C2c1ccccc1Cl` had a melting point of 260 to 262 °C.
Next, `COC[C@@H]1CCCN1S(=O)(=O)c1ccc(Cl)c(COc2cccc3c(-n4ccnc4)cc(C)nc23)c1Cl`: 66 °C; `COc1nc2ccccc2cc1NC(=O)N1CCN(c2cccc(O)c2)CC1`: 190 to 191 °C; `CC(=O)N1CCN(c2ccc(Nc3nccc(-c4sc(-c5ccc(N6CCOCC6)cc5)nc4C)n3)cc2)CC1`: 250 to 252 °C.
Next, `CC(Br)c1ccc2occ(C#N)c(=O)c2c1` (configuration not stated): 162 to 164 °C; `O=C(NCCCOc1ccc(-n2ccnc2)cc1)c1ccc(Br)cc1`: 183 to 185 °C.
Next, `N#Cc1cc(C(=O)NNC(=O)c2occc2-c2ccccc2OCc2ccccc2)ccc1O`: 118 to 120 °C; `CCC(=O)N(CC)c1ccc(C(=O)C=CN(C)C)cc1`: 75 to 77 °C.
Turning to `C1=Cc2cc(C=C(c3ccc4c(c3)C=C4)c3ccc4c(c3)C=C4)ccc21`, the melting point lay in the range of 87 to 89 °C.
`CCOC(=O)C1=C(Cl)C(OCC)=NS1(=O)=O`: the melting point lay within 134 to 136 °C.
For `Cc1ccc(S(=O)(=O)n2ccc3c(Cl)c(F)cnc32)cc1`, the melting point is 125 °C.
Next, `COc1ccc(N(c2ccc(C=Cc3ccc4ccc5cccc6ccc3c4c56)cc2)c2ccc(OC)cc2)cc1`: 160 °C.
Next, `O=C(O)c1cc(NCc2ccccc2)c(-c2ccccc2)c([N+](=O)[O-])c1`: 188 to 189 °C; `O=c1c(CCl)cc2cc([N+](=O)[O-])ccc2n1-c1ccccc1`: 152 to 154 °C; `O=C(NCc1ccccc1)c1ccnc(NC(=O)c2cccc(C(F)(F)F)c2)c1`: 87 to 88 °C.
As for `COc1ccc(C2=C(c3ccc(O)cc3)CCCc3cc(OCc4ccccc4)ccc32)cc1`, the melting point was 173 to 175 °C.
Next, `CC(C)(C)[Si](C)(C)OCC1(CO[Si](C)(C)C(C)(C)C)c2ccccc2-c2ccccc21`: 84 °C; `COc1ccc(N2CCOCC2)c2sc(NC(=O)N3C[C@@H]4CC[C@H]3C4)nc12`: 149 °C; `Cc1ccccc1-c1c(NC(=O)Nc2ccc(F)cc2F)c(=O)n(C)c2ccc(Cl)cc12`: 163 to 165 °C.
In the case of `Cc1nn(-c2ccccn2)c2nc3ccccc3c(Cl)c12` it was 157 to 159 °C; in that of `CCC(C1OC(=O)c2ccccc21)[N+](=O)[O-]` (configuration not stated), 90 to 92 °C; in that of `CCOC(=O)N1CCC2(CC1)C(=O)OC(=O)N2c1ccccc1`, 211 °C.
In the case of `CC(C)Oc1ccc(/C=C(\NC(=O)c2ccc(OCCC3C=CCC3)cc2)C(=O)NCCO)cc1` (configuration not stated) it was 67 to 70 °C; in that of `COc1ccc(-c2nc(C(C)C)sc2-c2ccc(OC)cc2)cc1`, 61 to 65 °C; in that of `CC(C)n1c(=O)ccc2cnc(S(C)=O)nc21` (configuration not stated), 132 to 133 °C.
Molecule `O=C1C(=Cn2ccnc2)c2ccccc2N1c1ccccc1` came in with a melting point of 158 to 161 °C.
In the case of `N#CNC(=NC1CCN(Cc2ccccc2)CC1)NC1Cc2ccccc2C1` it was 138 to 140 °C.
Next, `O[C@H]1CC[C@H](Nc2nccc(-n3ncc4c(Br)cccc43)n2)CC1`: 200 to 202 °C; `O=C(c1cc(Cl)ccc1O)c1ccccc1F`: 76 to 80.5 °C.
Next, `CN1c2cccc3cccc(c23)N(C)C1(C)C`: 53 to 57 °C.
As to `COC(=O)C1CCCn2c(=O)n(CSC(C)=O)c(=O)n21` (configuration not stated), the melting point lay in the range of 100 to 102 °C.
Next, `O=c1nc(-c2cccc(Br)c2)sc2ccccc12`: 162 °C.
Turning to `CC1(C)CC(=O)C2=C(C1)NC1=C(C(=O)CC(C)(C)C1)C2c1cccc(Oc2ccncc2)c1`, the melting point was 186 to 188 °C.
In the case of `O=C(O)CC1CCc2[nH]c3ccccc3c2C1` (configuration not stated) it was 209 to 210 °C; in that of `CNc1cccc(C(C)=O)c1OCCCN1CCC(c2noc3cc(F)ccc23)CC1`, 151 to 153 °C; in that of `CCOC(=O)c1cc(N2C(=O)C3=C(CCCC3)C2=O)ccc1O`, 90 °C.
As for `C#Cc1cccc(Nc2ncnc3ccc(-c4ccccc4C(=O)OCC)cc23)c1`, the melting point lay in the range of 174 to 177 °C.
Next, `Cc1cc(S(=O)(=O)O)c(NC(=O)Nc2cccc(Br)c2)cc1Cl`: 275 °C; `O=C(O)c1ccc(C(=O)Nc2cccc3cc(Br)cnc23)cc1`: more than 300 °C.
In the case of `O=[N+]([O-])c1cc2nc(Cl)n(C3OC(CO)C(O)C3O)c2cc1[N+](=O)[O-]` (configuration not stated) it was 132 to 135 °C; in that of `[N-]=[N+]=NC1CC(n2cc(I)c(=O)[nH]c2=O)OC1CO` (configuration not stated), 126 to 130 °C.
`O=C1Nc2c(Cl)cc(Cl)cc2C12CCCC2` registered a melting point of 175 to 176 °C.
Molecule `CCCCCCOc1ccc(C(=O)NCC2CCCC2(C)C)cc1` (single isomer, unassigned; (+)) registered a melting point of 68 to 69 °C.
`Cc1cc2cc(CN3CCCC3)cnc2cc1NC(=O)c1ccc(-c2ccc(F)cc2)c(F)c1`: the melting point was 163 to 166 °C.
In the case of `C=CCc1cc(C(C)=O)c(O)cc1OCCCCC` it was 54 °C.
In the case of `N#CCC(=O)NC1CCCCC1NC(=O)CC#N` (configuration not stated) it was 202 to 204 °C; in that of `NC(=O)N(O)CCNC(=O)c1cc2ccccc2o1`, 181 to 182 °C.
Next, `CC(C)NCC(O)COc1ccc(C2=NNC(=O)CC2)c2ccccc12` (configuration not stated): 131 to 135 °C; `O=c1[nH]c2ccc(C3=NOC(CCN4CCC(Cc5ccc(F)cc5)CC4)C3)cc2o1` (configuration not stated): 254 to 258 °C.
For `CC(C)c1nc(CCOC(N)=O)n(Cc2ccccc2N)c1Sc1cc(Cl)cc(Cl)c1`, the melting point was 167 to 170 °C.
In the case of `O=c1[nH]c(=O)n(C2CC(F)C(CO)O2)cc1C#CI` (configuration not stated) it was 140 °C; in that of `CSc1cc(C)nc(SC)c1NC(=O)CCCCCCCCSc1nc2ccccc2o1`, 123 to 124 °C; in that of `COc1cc(SC2SCC(O)C(O)C2O)cc(OC)c1OC` (configuration not stated), 166 °C.
In the case of `O=C(/C=C/c1ccc(C(=O)O)s1)NOC1CCCCO1` (configuration not stated) it was 177 °C.
Next, `COc1cc2c(cc1O)C1Cc3c(Cl)cc(OC)c(O)c3CN1CC2` (configuration not stated): 136 to 138 °C; `O=P(O)(O)CCCCCCCCCCCC(F)(F)C(F)(F)C(F)(F)C(F)(F)C(F)(F)C(F)(F)C(F)(F)C(F)(F)F`: 115 to 117 °C; `C=CCn1c(=O)n(CCCCO)c2nc(N)nc(Cl)c21`: 132 to 133 °C.
Turning to `O=C1COc2cc(Sc3ccc(O)cc3)ccc2N1`, the melting point was in the range of 156 to 157 °C.
Next, `COCCc1ccsc1S(N)(=O)=O`: 64 to 73 °C; `CC(C)=C1CCC2(C1)C(=O)C=C(OC(C)C)CC2C` (configuration not stated): 77 to 77.5 °C.
In the case of `CCCCCCCCCCCCCCCCCCOc1cc(OCCCCc2ccc3cc(O)c(O)cc3c2)cc(N(CC(=O)O)CC(=O)O)c1` it was 153 to 155 °C; in that of `COc1cccc([C@H]2O[C@H](CC(=O)O)C(=O)N(CC(C)(C)CO)c3ccc(Cl)cc32)c1OC`, 199 to 202 °C.
Take `COc1ccc(CCNC(=O)COCCC(=O)NCCc2ccccc2)cc1OC`: the melting point lay in the range of 108 to 110 °C.
In the case of `O=C1C(=O)N(c2ccc(Cl)cc2)C(=O)N1c1ccccc1` it was 154 °C; in that of `CCC=CC(c1cc(F)ccc1F)S(=O)(=O)c1ccc(Cl)cc1` (configuration not stated), 99 to 100 °C; in that of `CSC(=NS(=O)(=O)c1ccccc1Cl)SC`, 119 to 123 °C.
`ONc1cccc(OCc2nc3ccccc3s2)c1` returned a melting point of 112 to 114 °C.
In the case of `CSc1cn(C)c2c(-c3ccccc3)csc2c1=O` it was 204 to 206 °C; in that of `CC(C)c1cc(C(C)C)c(C=CC(=O)c2ccc(C(C)C)c(OS(N)(=O)=O)c2C(C)C)c(C(C)C)c1`, 144 to 148 °C.
In the case of `CCCCc1ccc(C(=O)Oc2ccc(C(=O)O)cc2)cc1C12CC3CC(CC(C3)C1)C2` it was 205 to 206 °C.
In the case of `COC(=O)c1ccc(N(N)C(=O)c2ccc(Cl)c(S(N)(=O)=O)c2)c([N+](=O)[O-])c1`, the melting point lay in the range of 144 to 147 °C.
Next, `C[C@]1(COc2ccc(N3CCC(Nc4ccc(Cl)c(Cl)c4)CC3)cc2)Cn2cc([N+](=O)[O-])nc2O1`: 146 to 147 °C; `Nc1c(-c2ccc(-c3ccc(F)cc3)cc2)nc2ccc(F)cc2c1C(=O)O`: 241 to 243 °C; `CC(C)(C)OC(=O)N1CCN(C(=O)c2ccncc2)CC1`: 139 to 140 °C.
`COc1cc(N2CCN(C(=O)Cn3nc(C#N)c4cccnc43)CC2)ccc1Cl` displayed a melting point of 183 to 185 °C.
In the case of `O=C(Nc1ccccc1Sc1ccccc1-c1nnn[nH]1)c1ccc(OCCCCc2ccccc2)cc1` it was 156 to 159 °C; in that of `COC(=O)c1ccccc1OCNC(=O)OC(C)(C)C`, 95 to 96 °C.
In the case of `NS(=O)(=O)c1cc2c(cc1Cl)NC(CCCCCO)NS2(=O)=O` (configuration not stated) it was 190 °C.
Take `COc1cc(Nc2c(C#N)cnc3c2sc2ccccc23)c(Cl)cc1Cl`: the melting point is 234 to 236 °C.
In the case of `CCN(CC)CCOC(=O)c1nn(-c2ccc(Cl)cc2)c2c1CCc1ccccc1-2` it was 102 to 103 °C; in that of `COc1ccccc1N1CCN(CCn2nc(-c3c(-c4ccccc4)nn4ccccc34)ccc2=O)CC1`, 120 to 125 °C.
Next, `CSC1CC(=O)N1CC(=O)O` (single isomer, unassigned; (+)): 117 to 118 °C; `CCc1cc2ccccn2c1C(=O)c1ccc(OS(=O)(=O)c2ccc(C)cc2)cc1`: 165 °C; `OC1CCCc2nc3ccccc3c(NCCCOc3ccccc3)c21` (configuration not stated): 138 to 140 °C.
Next, `O=C(CCc1ccccc1)N[C@H]1CCCN2CCC[C@@H](C(=O)O)N2C1=O`: 198 to 202 °C.
